Data as given in patent US9688702B2, “Alpha-amino boronic acid derivatives, selective immunoproteasome inhibitors” (Ares Trading S.A, priority 2011, dated 2017).
Where a name gives a salt, the structure may show the parent alone.

How the values were obtained:
[1] = target: LMP7 (purified human immuno proteasome) (Homo sapiens, UniProt P28062); experiment: Determination of LMP7 activity (fluorescence intensity assay, Suc-LLVY-AMC); assay type: biochemical; conditions: for IC50: 40 μM Suc-LLVY-AMC, 37° C.
Protocol: Measurement of LMP7 inhibition is performed in 384 well format based on fluorescence intensity assay.
(§1) Purified human immuno proteasome (0.5 nM) and serial diluted compounds in DMSO (range of concentrations from 10 μM to 38 pM) or controls (0.5% DMSO) are incubated for 30 minutes at 37° C. in assay buffer containing 50 mM Tris pH 7.4 and 0.03% SDS. The reaction is initiated by the addition of the fluorogenic peptide substrate, Suc-LLVY-AMC (Bachem I-1395), at a concentration of 40 μM. After 90 minutes of incubation at 37° C., fluorescence intensity is measured at λex=350 nm and λem=450 nm with a fluorescence reader (BMG Pherastar reader or equivalent).
as §1, with “proteasome (0.25” for “proteasome (0.5”

[2] = target: Beta5 (purified human constitutive proteasome) (Homo sapiens, UniProt P28074); experiment: Determination of Beta5 activity (fluorescence intensity assay, Suc-LLVY-AMC); assay type: biochemical; conditions: purified human constitutive proteasome 1.0 nM, 40 μM Suc-LLVY-AMC, 37° C.
Protocol: Measurement of Beta5 inhibition is performed in 384 well format based on fluorescence intensity assay.
as §1, with “human constitutive” for “human immuno”, “proteasome (1.0” for “proteasome (0.5”, “(Bachem 1-1395),” for “(Bachem I-1395),”

[3] = purified human immuno proteasome 0.5 nM
[4] = purified human immuno proteasome 0.25 nM (examples 79, 80, 83, 84, 85, 87, 88, 89, 90, 91, 93, 94, 96, 97, 101 and 110)

SMILES	Selectivity LMP7 vs Beta5 [1]	IC50 [1, 3] [µM]	IC50 [2] [µM]	IC50 [1, 4] [µM]
O=C(CCN1CCNCC1)N[C@@H](Cc1coc2ccccc12)B(O)O [Example 92, (R)-(2-(benzofuran-3-yl)-1-(3-(piperazin-1-yl)propanamido)ethyl) boronic acid hydrochloride]	+++ (+++: Selectivity > 30)	< 0.05	0.05 to 0.5	
COc1ccc(C(=O)CCC(=O)N[C@@H](Cc2ccc(OC(F)(F)F)cc2)B(O)O)cc1 [Example 43, (R)-(1-(4-(4-methoxyphenyl)-4-oxobutanamido)-2-(4-(trifluoromethoxy)phenyl)ethyl)boronic acid]	++ (++: 10 < Selectivity < 30)	0.05 to 0.5	0.5 to 5	
COc1cc(C[C@H](NC(=O)CCn2cnc3ccccc32)B(O)O)ccc1F [Example 69, (R)-(1-(3-(1H-benzo[d]imidazol-1-yl)propanamido)-2-(4-fluoro-3-methoxyphenyl)ethyl)boronic acid]	+ (+: Selectivity < 10)	0.05 to 0.5	0.5 to 5	
O=C(N[C@@H](Cc1ccsc1)B(O)O)[C@@H](Cc1ccccc1)Cc1cn(-c2ccccc2)nn1 [Example 63, ((R)-1-((S)-2-benzyl-3-(1-phenyl-1H-1,2,3-triazol-4-yl)propanamido)-2-(thiophen-3-yl)ethyl)boronic acid]	++ (++: 10 < Selectivity < 30)	< 0.05	< 0.05	
CCOc1cccc(C[C@H](NC(=O)CCn2cnc3ccccc32)B(O)O)c1 [Example 67, (R)-(1-(3-(1H-benzo[d]imidazol-1-yl)propanamido)-2-(3-ethoxyphenyl)ethyl)boronic acid]	++ (++: 10 < Selectivity < 30)	< 0.05	0.05 to 0.5	
O=C(CCn1cnc2ccccc21)N[C@@H](Cc1ccc(OC(F)(F)F)cc1)B(O)O [Example 51, (R)-(1-(3-(1H-benzo[d]imidazol-1-yl)propanamido)-2-(4-(trifluoromethoxy)phenyl)ethyl)boronic acid]	+ (+: Selectivity < 10)	< 0.05	0.05 to 0.5	
O=C(CCc1ccncc1)N[C@@H](Cc1coc2ccccc12)B(O)O [Example 93, (R)-(2-(benzofuran-3-yl)-1-(3-(pyridin-4-yl)propanamido)ethyl)boronic acid hydrochloride]	++ (++: 10 < Selectivity < 30)		< 0.05	< 0.05
CC(CC(=O)c1ccccc1)C(=O)N[C@@H](Cc1ccsc1)B(O)O (mixture of isomers) [Example 10, [(1R)-1-[(2-(RS)-methyl-4-oxo-4-phenylbutanoyl)amino]-2-(3-thienyl)ethyl]boronic acid]		0.5 to 5	> 5	
O=C(CCc1ccc(F)cc1)N[C@@H](Cc1coc2ccccc12)B(O)O [Example 80, (R)-(2-(benzofuran-3-yl)-1-(3-(4-fluorophenyl)propanamido)ethyl) boronic acid]	+++ (+++: Selectivity > 30)		< 0.05	< 0.05
COc1ccc2occ(C[C@H](NC(=O)CCn3c(=O)sc4ccccc43)B(O)O)c2c1 [Example 109, (R)-(2-(5-methoxybenzofuran-3-yl)-1-(3-(2-oxobenzo[d]thiazol-3(2H)-yl)propanamido)ethyl)boronic acid]	+ (+: Selectivity < 10)	< 0.05	0.05 to 0.5	
Cc1nc2ccccc2n1CCC(=O)N[C@@H](Cc1ccsc1)B(O)O [Example 55, (R)-(1-(3-(2-methyl-1H-benzo[d]imidazol-1-yl)propanamido)-2-(thiophen-3-yl)ethyl)boronic acid]	+ (+: Selectivity < 10)	< 0.05	0.05 to 0.5	
O=C(CCC(=O)c1ccc(-c2ccccc2)cc1)N[C@@H](Cc1ccsc1)B(O)O [Example 20, [(1R)-1-[(4-biphenyl-4-yl-4-oxobutanoyl)amino]-2-(3-thienyl)ethyl]boronic acid]	+ (+: Selectivity < 10)	0.05 to 0.5	0.5 to 5	
COc1cc(F)cc(C[C@H](NC(=O)CCn2cnc3ccccc32)B(O)O)c1 [Example 57, (R)-(1-(3-(1H-benzo[d]imidazol-1-yl)propanamido)-2-(3-fluoro-5-methoxyphenyl)ethyl)boronic acid]	++ (++: 10 < Selectivity < 30)	< 0.05	0.05 to 0.5	
CCc1cccc(C[C@H](NC(C)=O)B(O)O)c1 [Example 77, (R)-(1-acetamido-2-(3-ethylphenyl)ethyl)boronic acid]		0.5 to 5		

The next lines start with the values.

Selectivity LMP7 vs Beta5 [1]	IC50 [1, 3] [µM]	IC50 [2] [µM]	IC50 [1, 4] [µM]	SMILES
++ (++: 10 < Selectivity < 30)	0.05 to 0.5	0.5 to 5		COc1ccc(C(=O)CCC(=O)N[C@@H](Cc2cccc(OC(F)(F)F)c2)B(O)O)cc1 [Example 48, (R)-(1-(4-(4-methoxyphenyl)-4-oxobutanamido)-2-(3-(trifluoromethoxy)phenyl)ethyl)boronic acid]
+++ (+++: Selectivity > 30)	< 0.05	0.5 to 5		CCc1cccc(C[C@H](NC(=O)CCc2noc(-c3ccccc3)n2)B(O)O)c1 [Example 36, ((1R)-2-(3-ethylphenyl)-1-{[3-(5-phenyl-1,2,4-oxadiazol-3-yl)propanoyl]amino}ethyl)boronic acid]
+++ (+++: Selectivity > 30)	< 0.05	0.5 to 5		CCc1cccc(C[C@H](NC(=O)CCn2cc(-c3cccnc3)nn2)B(O)O)c1 [Example 76, (R)-(2-(3-ethylphenyl)-1-(3-(4-(pyridin-3-yl)-1H-1,2,3-triazol-1-yl)propanamido)ethyl)boronic acid]
++ (++: 10 < Selectivity < 30)	0.05 to 0.5	0.5 to 5		CCc1cccc(C[C@H](NC(=O)CCn2ncc3ccccc32)B(O)O)c1 [Example 28, ((1R)-2-(3-ethylphenyl)-1-{[3-(1H-indazol-1-yl)propanoyl]amino}ethyl)boronic acid]
+++ (+++: Selectivity > 30)	0.05 to 0.5	> 5		CCc1cccc(C[C@H](NC(=O)CCC(=O)c2ccc(OC)cc2OC)B(O)O)c1 [Example 11, [(1R)-1-{[4-(2,4-dimethoxyphenyl)-4-oxobutanoyl]amino}-2-(3-ethylphenyl)ethyl]boronic acid]
+++ (+++: Selectivity > 30)	0.05 to 0.5	0.5 to 5		CCc1cccc(C[C@H](NC(=O)CCC(=O)c2ccc3ccccc3c2)B(O)O)c1 [Example 18, ((1R)-2-(3-ethylphenyl)-1-{[4-(2-naphthyl)-4-oxobutanoyl]amino}ethyl)boronic acid]
+++ (+++: Selectivity > 30)	< 0.05	0.05 to 0.5		CCc1cccc(C[C@H](NC(=O)CCn2cc(-c3ccc(OC)cc3)nn2)B(O)O)c1 [Example 75, (R)-(2-(3-ethylphenyl)-1-(3-(4-(4-methoxyphenyl)-1H-1,2,3-triazol-1-yl)propanamido)ethyl)boronic acid]
+++ (+++: Selectivity > 30)	< 0.05	0.05 to 0.5		CCc1cccc(C[C@H](NC(=O)CCn2cc(-c3ccccc3)nn2)B(O)O)c1 [Example 52, (R)-(2-(3-ethylphenyl)-1-(3-(4-phenyl-1H-1,2,3-triazol-1-yl)propanamido)ethyl)boronic acid]
++ (++: 10 < Selectivity < 30)	< 0.05	0.05 to 0.5		CCc1cccc(C[C@H](NC(=O)CCn2c(=O)sc3ccccc32)B(O)O)c1 [Example 30, ((1R)-2-(3-ethylphenyl)-1-{[3-(2-oxo-1,3-benzothiazol-3(2H)-yl)propanoyl]amino}ethyl)boronic acid]
+ (+: Selectivity < 10)	< 0.05	< 0.05		O=C(CCn1cc(-c2ccccc2)nn1)N[C@@H](Cc1csc2ccccc12)B(O)O [Example 104, (R)-(2-(benzo[b]thiophen-3-yl)-1-(3-(4-phenyl-1H-1,2,3-triazol-1-yl)propanamido)ethyl)boronic acid]
+++ (+++: Selectivity > 30)		< 0.05	< 0.05	COc1ccc(-n2cc(CCC(=O)N[C@@H](Cc3coc4ccccc34)B(O)O)nn2)cc1 [Example 90, (R)-(2-(benzofuran-3-yl)-1-(3-(1-(4-methoxyphenyl)-1H-1,2,3-triazol-4-yl)propanamido)ethyl)boronic acid]
